Experimental data: patent US20260035403A1, “NUCLEOSIDE LINE-1 INHIBITORS” (TRANSPOSON THERAPEUTICS, INC., priority 2022, published 2026)

tested on: human LINE-1; assay: Human LINE-1 retrotransposition assay (HeLa cell-based dual-luciferase reporter); conditions: Homo sapiens, HeLa, 72 h, Human LINE-1 activity inhibition; HeLa cells, reporter plasmid pYX017, Firefly/Renilla, 72 h incubation
Method: Representative Compounds of the Disclosure were tested for inhibition of retrotransposition activity of human LINE-1 in HeLa cells according to the following procedure.
HeLa cervical cancer cells were cultivated at 37° C. in a humidified 5% CO2 incubator in Dulbecco's Modified Eagle's Medium (DMEM)—high glucose, with 4500 mg/L glucose, L-glutamine, sodium pyruvate and sodium bicarbonate (Sigma), supplemented with 10% of heat inactivated fetal bovine serum (Thermo Fisher).
Assays were performed using reporter plasmid pYX017 as described (Xie, et al., 2011) with several modifications. The reporter assay was performed in 96-well white optical bottom plates. HeLa cells were seeded in wells 24 h prior to transfection and compound treatment so that cells were approximately 30% confluent on the day of transfection. Different cell plating densities were tested and a density of 2×10^3 cells was determined to be optimal.
Compounds were resuspended in DMSO. Serial dilutions (1:3) were prepared in DMSO. Medium containing different concentrations of the compounds were prepared by adding 2 μl of the compound dilution to 1 ml of the culture medium. The final concentration of DMSO in the medium was 0.2%.
FuGENE® HD transfection reagent (Promega, E2311, Lot 382574 and Lot 397842) was used to transfect the plasmids into the cells. The transfection reagent: DNA mixture was prepared in OpiMEM (Thermo Fisher) according to manufacturer's instructions. Different ratios of transfection reagent to DNA were tested and a ratio of 3:1 was determined to be optimal. Culture medium was removed from the cells and discarded. The transfection reagent: DNA mixture (5 μl) was mixed with the compound containing medium (100 μl/well) and this was added onto the cells of each well. Cells were incubated at 37° C./5% CO2 for different incubation time. A 72 h incubation time was determined to be optimal.
Luciferase reporter activity was quantified with the Dual-Luciferase® Reporter Assay System (Promega) according to manufacturer's instructions for multiwell plates except that cells were lysed directly on the multiwell plate with 30 μl of the passive lysis buffer (PLB) for 20 min at room temperature, with gentle shaking to ensure complete cell lysis.
Firefly and Renilla luciferase signals were measured using a SpectraMax i3× Multi-Mode Microplate Reader. Integration times of 100 ms and 10 ms were used to measure the Firefly and Renilla signals respectively. Relative L1 activity is calculated as Firefly/Renilla*1000 or Firefly/Renilla*10,000. Dose response inhibition data were fit to a four parameter logistic equation using non-linear regression (using Graphpad Prism 8), to determine IC50 values for each inhibitor.

IC50 [µM] | SMILES
> 25 | CC[C@]1(CO)O[C@@H](n2cc(C#N)c(=O)[nH]c2=O)C[C@@H]1O [Cpd. No. 98, 1-((2R,4S,5R)-5-ethyl-4-hydroxy-5-(hydroxymethyl)tetrahydrofuran-2-yl)-4-hydroxy-2-oxo-1,2-dihydropyrimidine-5-carbonitrile]
23.4 | C#C[C@]1(CO)O[C@H](n2cnc3c(N)nc(N)nc32)C[C@@H]1O [compound 72, (2R,3S,5S)-5-(2,6-diamino-9H-purin-9-yl)-2-ethynyl-2-(hydroxymethyl)tetrahydrofuran-3-ol]
0.013 | C=C[C@]1(CO)O[C@@H](n2cnc3c(O)nc(N)nc32)C[C@@H]1O [Cpd. No. 9, 2-amino-9-((2R,4S,5R)-4-hydroxy-5-(hydroxymethyl)-5-vinyltetrahydrofuran-2-yl)-1H-purin-6(9H)-one]
0.259 | C#C[C@]1(CO)O[C@@H](n2cnc3c(OC)nc(N)nc32)C[C@@H]1O [compound 101, (2R,3S,5R)-5-(2-amino-6-methoxy-9H-purin-9-yl)-2-ethynyl-2-(hydroxymethyl)tetrahydrofuran-3-ol]
7.21 | CC[C@]1(CO)O[C@H](n2ccc(=O)[nH]c2=O)C[C@@H]1O [Cpd. No. 20, 1-((2S,4S,5R)-5-ethyl-4-hydroxy-5-(hydroxymethyl)tetrahydrofuran-2-yl)pyrimidine-2,4(1H,3H)-dione]
> 50 | CC[C@]1(CO)O[C@@H](n2cnc3c(N)nc(Cl)nc32)[C@H](O)[C@@H]1O [compound 195, (2R,3S,4R,5R)-5-(6-amino-2-chloro-9H-purin-9-yl)-2-ethyl-2-(hydroxymethyl)tetrahydrofuran-3,4-diol]
> 50 | C#C[C@]1(CO)O[C@H](n2cc(Br)c(=O)[nH]c2=O)C[C@@H]1O [compound 53, 5-bromo-1-((2S,4S,SR)-5-ethynyl-4-hydroxy-5-(hydroxymethyl)tetrahydrofuran-2-yl)pyrimidine-2,4(1H,3H)-dione]
17 | C#C[C@@]1(CO)O[C@@H](n2cnc3c(=O)[nH]c(N)nc32)C[C@H]1O [Cpd. No. 79, 2-amino-9-[(2R,4R,5S)-5-ethynyl-4-hydroxy-5-(hydroxymethyl)tetrahydrofuran-2-yl]-1H-purin-6-one]
> 50 | CC[C@]1(CO)O[C@@H](n2cnc3c(N)ncnc32)[C@H](O)[C@@H]1O [compound 196, (2R,3S,4R,5R)-5-(6-amino-9H-purin-9-yl)-2-ethyl-2-(hydroxymethyl)tetrahydrofuran-3,4-diol]
0.658 | C=C[C@]1(CO)O[C@@H](n2cc(Br)c(N)nc2=O)C[C@@H]1O [Cpd. No. 90, 4-amino-5-bromo-1-((2R,4S,5R)-4-hydroxy-5-(hydroxymethyl)-5-vinyltetrahydrofuran-2-yl)pyrimidin-2(1H)-one]
2.35 | C=C[C@]1(CO)O[C@@H](n2cc(F)c(=O)[nH]c2=O)C[C@@H]1O [Cpd. No. 17, 5-fluoro-1-((2R,4S,5R)-4-hydroxy-5-(hydroxymethyl)-5-vinyltetrahydrofuran-2-yl)pyrimidine-2,4(1H,3H)-dione]
3.75 | CC[C@]1(CO)O[C@@H](n2cc(F)c(=O)[nH]c2=O)C[C@@H]1O [Cpd. No. 18, 1-((2R,4S,5R)-5-ethyl-4-hydroxy-5-(hydroxymethyl)tetrahydrofuran-2-yl)-5-fluoropyrimidine-2,4(1H,3H)-dione]
> 50 | Cc1cn([C@H]2C[C@@H](O)[C@@](C)(CO)O2)c(=O)[nH]c1=O [compound 23, 1-((2R,4R,5R)-4-hydroxy-5-(hydroxymethyl)-5-methyltetrahydrofuran-2-yl)-5-methylpyrimidine-2,4(1H,3H)-dione]
> 40 | Nc1nc(F)nc2c1ncn2[C@H]1C[C@H](O)C(CO)(CO)O1 [compound 154, ((3S,5R)-5-(6-amino-2-fluoro-9H-purin-9-yl)-3-hydroxytetrahydrofuran-2,2-diyl)dimethanol]
3.67 | C=C[C@]1(CO)O[C@@H](n2cc(C)c(=O)[nH]c2=O)C[C@@H]1O [Cpd. No. 62, 1-((2R,4S,5R)-4-hydroxy-5-(hydroxymethyl)-5-vinyltetrahydrofuran-2-yl)-5-methylpyrimidine-2,4(1H,3H)-dione]
1.6 | CC[C@]1(CO)O[C@H](n2cc(C)c(=O)[nH]c2=O)CC1O (stereo partly drawn) [compound 71, 1-((2S,5R)-5-ethyl-4-hydroxy-5-(hydroxymethyl)tetrahydrofuran-2-yl)-5-methylpyrimidine-2,4(1H,3H)-dione]
> 50 | C#C[C@@]1(CO)C=C[C@H](n2cc(C3CC3)c(=O)[nH]c2=O)O1 [compound 27, 5-cyclopropyl-1-((2R,5R)-5-ethynyl-5-(hydroxymethyl)-2,5-dihydrofuran-2-yl)pyrimidine-2,4(1H,3H)-dione]
0.738 | C=C[C@]1(CO)OC(n2cc(OC)c(=O)[nH]c2=O)C[C@@H]1O (stereo partly drawn) [compound 66, 1-((4S,5R)-4-hydroxy-5-(hydroxymethyl)-5-vinyltetrahydrofuran-2-yl)-5-methoxypyrimidine-2,4(1H,3H)-dione]
0.122 | CC[C@]1(CO)O[C@@H](n2cnc3c(N)ncnc32)[C@@H](F)[C@@H]1O [compound 192, (2R,3R,4S,5R)-5-(6-amino-9H-purin-9-yl)-2-ethyl-4-fluoro-2-(hydroxymethyl)tetrahydrofuran-3-ol]
5.53 | CC[C@]1(CO)O[C@@H](n2cnc3c(NC4CC4)nc(F)nc32)C[C@@H]1O [Cpd. No. 99, (2R,3S,5R)-5-(6-(cyclopropylamino)-2-fluoro-9H-purin-9-yl)-2-ethyl-2-(hydroxymethyl)tetrahydrofuran-3-ol]
370 | C#C[C@]1(CO)O[C@@H](n2cnc3c(N)nc(F)nc32)[C@H](F)[C@@H]1O [compound 13, (2R,3R,4R,5R)-5-(6-amino-2-fluoro-9H-purin-9-yl)-2-ethynyl-4-fluoro-2-(hydroxymethyl)tetrahydrofuran-3-ol]
> 50 | C=C[C@]1(CO)O[C@@H](n2cc(OC)c(=O)[nH]c2=O)C[C@@H]1O [Cpd. No. 6, 1-((2R,4S,5R)-4-hydroxy-5-(hydroxymethyl)-5-vinyltetrahydrofuran-2-yl)-5-methoxypyrimidine-2,4(1H,3H)-dione]
> 50 | C#C[C@]1(CO)O[C@H](n2cc(C)c(N)nc2=O)C[C@@H]1O [compound 56, 4-amino-1-((2S,4S,5R)-5-ethynyl-4-hydroxy-5-(hydroxymethyl)tetrahydrofuran-2-yl)-5-methylpyrimidin-2(1H)-one]
21.9 | C=C[C@]1(CO)O[C@H](n2cc(Br)c(=O)[nH]c2=O)C[C@@H]1O [compound 65, 5-bromo-1-((2S,4S,5R)-4-hydroxy-5-(hydroxymethyl)-5-vinyltetrahydrofuran-2-yl)pyrimidine-2,4(1H,3H)-dione]
50 | C#C[C@@]1(CO)C=C[C@H](n2cnc3c(N)ncnc32)O1 [compound 14, ((2R,5R)-5-(6-amino-9H-purin-9-yl)-2-ethynyl-2,5-dihydrofuran-2-yl)methanol]

SMILES | IC50 [µM]
C#C[C@@]1(CO)O[C@@H](n2ccc(N)nc2=O)C[C@H]1O [Cpd. No. 77, 4-amino-1-((2R,4R,5S)-5-ethynyl-4-hydroxy-5-(hydroxymethyl)tetrahydrofuran-2-yl)pyrimidin-2(1H)-one] | > 6.25

same assay, conditions: Human LINE-1 activity inhibition; HeLa cells, reporter plasmid pYX017, Firefly/Renilla, 72 h incubation

IC50 [µM] | SMILES
> 50 | C#C[C@@]1(CO)C=C[C@H](n2cc(F)c(=O)[nH]c2=O)O1 [Cpd. No. 19, 1-((2R,5R)-5-ethynyl-5-(hydroxymethyl)-2,5-dihydrofuran-2-yl)-5-fluoropyrimidine-2,4(1H,3H)-dione]
